This is an account of results in article PMC11925246 (Journal of Bacteriology, 2025).

SMILES strings stand for the structures. “And” between values parts separate entries of the source, which are not always exact repeats. Equal values may be shown once. Read-outs that look alike come from different tables or passages of the source.

Assay [1] deals with periplasmic domain of Rsc1598 (Ralstonia pseudosolanacearum, UniProt Q8XZ08). Put plainly: biochemical. Type of assay: binding, R. pseudosolanacearum OE1-1.
Chain of periplasmic domain of Rsc1598 (Q8XZ08 99-319 limits assumed): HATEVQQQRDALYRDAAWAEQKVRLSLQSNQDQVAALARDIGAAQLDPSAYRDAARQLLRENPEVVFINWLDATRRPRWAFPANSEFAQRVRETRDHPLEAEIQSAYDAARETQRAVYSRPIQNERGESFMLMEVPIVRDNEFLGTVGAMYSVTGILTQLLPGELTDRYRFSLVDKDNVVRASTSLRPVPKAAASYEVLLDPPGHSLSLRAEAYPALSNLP
In assay [2] the test system is hrpB expression. Type of assay: cell-based, R. pseudosolanacearum. To be noted: hrpB-lacZ resting cells, 25°C; for Induction of hrpB expression by organic acids: organic acid 0.1 mM, 20 h (Fig. 5); for Induction of hrpB expression by sugars: sugar 0.01%, 20 h (Fig. 6).
The test system of assay [3] is hrpB expression. It is filed as cell-based, R. pseudosolanacearum. To be noted: malic acid 0.5 mM or sucrose 0.01%, quarter-strength M63 with 0.25% glucose, 28 °C, 5 h (Fig. S4).

Consider `O=C(O)CC(O)(CC(=O)O)C(=O)O` [Citric acid, citric acid], for which the Kd in assay [1] (Kd, Average of titrations, 25°C, pH 7.6) is 155 ± 80.7 µM; in assay [1] (Kd, ITC single titration, ligand 4 mM, 25°C, 50 mM sodium phosphate buffer pH 7.6, protein 40 µM), 137 µM; in assay [1] (Kd, ITC single titration, ligand 5 mM, 25°C, 50 mM sodium phosphate buffer pH 7.6, protein 40 µM) it was 84.5 µM; in assay [1] (Kd, ITC single titration, ligand 6 mM, 25°C, 50 mM sodium phosphate buffer pH 7.6, protein 40 µM) it was 243 µM.
Turning to `O=CO` [Formic acid, formic acid], the Kd in assay [1] (ITC single titration, ligand 5 mM, 25°C, 50 mM sodium phosphate buffer pH 7.6, protein 40 µM, read-out: Kd) came out at 71.5 µM; in assay [1] (ITC single titration, ligand 6 mM, 25°C, 50 mM sodium phosphate buffer pH 7.6, protein 40 µM, read-out: Kd), 231 µM.
As to `O=C(O)/C=C/C(=O)O` [Fumaric acid, fumaric acid], the Kd in assay [1] (Kd) is 47 µM and 56.3 µM; in assay [1] (pH 7.6), “smaller than that of malic acid”.
In the case of `O=C(O)[C@@H]1CCC(O)=N1` [L-pyroglutamic acid], in assay [1] (Kd), the Kd is 41 µM and 43.2 µM and 194 µM. Moreover, the “Induction of hrpB expression by organic acids” value (“Induction … by organic acids” below) in the assay on hrpB expression [2] was “induced high levels of hrpB expression”.
Turning to `O=C(O)CC(O)C(=O)O` (centres unmarked) [Malic acid, malic acid], the Kd in assay [1] (Kd) is 68.4 µM and 64.3 µM and 89 µM and 65 µM. Besides, the “Induction … by organic acids” value in the assay with hrpB expression [2] is on record as “induced high levels of hrpB expression”. Also, the “Induction of hrpB-lacZ expression in growing cells” value in the assay on hrpB expression [3] is listed as “induced hrpB expression”.
Turning to `O=C(O)C(=O)O` [Oxalic acid, oxalic acid], the Kd in assay [1] (Kd) was 229 µM and 151 µM.
On to `O=C(O)CCC(=O)O` [Succinic acid, succinic acid], for which the Kd in assay [1] (Kd) is 29.5 µM and 190 µM. The “Induction … by organic acids” value in the assay with hrpB expression [2] is reported as “induced high levels of hrpB expression”.
Regarding `O=C(CO)[C@@H](O)[C@H](O)[C@H](O)CO` [fructose], the “Induction of hrpB expression by sugars” value with hrpB expression [2] is “induced hrpB expression”.
With `OC[C@H]1OC(O)[C@H](O)[C@@H](O)[C@@H]1O` (some centres unmarked) [glucose], the “Induction of hrpB expression by sugars” value with hrpB expression [2] was “induced hrpB expression”.
Consider `OC[C@H]1O[C@@](CO)(O[C@H]2O[C@H](CO)[C@@H](O)[C@H](O)[C@H]2O)[C@@H](O)[C@@H]1O` [sucrose], for which, in the assay with hrpB expression [2], the “Induction of hrpB expression by sugars” value is reported as “the most effective sugar”. In addition, in the assay with hrpB expression [3], the “Induction of hrpB-lacZ expression in growing cells” value is given as “minimal induction”.
